Source: patent publication US20120277184A1 (priority 2004, published 2012)
Where two headings read alike, the source gives them in different places.

How the values were obtained:
LeTx = LeTx (Bacillus anthracis, UniProt P13423); conditions: raw 264.7 cells
α-HL [1] = target: T1, α-HL (Staphylococcus aureus, UniProt P09616)
α-HL [2] = target: T1, α-HL; format: biochemical; conditions: read-out: Inhibition of trans-membrane conductance IC50
ε-toxin = ε-toxin (Clostridium perfringens, UniProt Q02307)
ε-toxin, sequence (Q02307 46-306 limits assumed): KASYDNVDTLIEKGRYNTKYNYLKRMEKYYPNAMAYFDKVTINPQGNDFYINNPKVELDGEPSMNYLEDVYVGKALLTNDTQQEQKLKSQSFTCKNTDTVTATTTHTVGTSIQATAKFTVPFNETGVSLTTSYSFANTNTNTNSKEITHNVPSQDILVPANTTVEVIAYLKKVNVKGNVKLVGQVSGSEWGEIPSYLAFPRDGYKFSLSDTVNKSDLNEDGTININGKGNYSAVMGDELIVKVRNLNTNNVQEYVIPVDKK

[3] = rat, in vivo; cited from earlier work

T1 sequence (P09616 27-319 limits assumed): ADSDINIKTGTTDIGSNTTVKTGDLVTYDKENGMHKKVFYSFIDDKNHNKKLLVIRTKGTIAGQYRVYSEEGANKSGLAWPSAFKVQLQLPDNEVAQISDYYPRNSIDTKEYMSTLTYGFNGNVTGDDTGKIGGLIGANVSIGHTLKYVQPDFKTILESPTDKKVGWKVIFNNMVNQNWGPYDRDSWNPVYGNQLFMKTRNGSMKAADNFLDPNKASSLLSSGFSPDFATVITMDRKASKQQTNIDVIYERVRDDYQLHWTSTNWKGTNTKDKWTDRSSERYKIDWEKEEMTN
LeTx, sequence (P13423 197-764 limits assumed): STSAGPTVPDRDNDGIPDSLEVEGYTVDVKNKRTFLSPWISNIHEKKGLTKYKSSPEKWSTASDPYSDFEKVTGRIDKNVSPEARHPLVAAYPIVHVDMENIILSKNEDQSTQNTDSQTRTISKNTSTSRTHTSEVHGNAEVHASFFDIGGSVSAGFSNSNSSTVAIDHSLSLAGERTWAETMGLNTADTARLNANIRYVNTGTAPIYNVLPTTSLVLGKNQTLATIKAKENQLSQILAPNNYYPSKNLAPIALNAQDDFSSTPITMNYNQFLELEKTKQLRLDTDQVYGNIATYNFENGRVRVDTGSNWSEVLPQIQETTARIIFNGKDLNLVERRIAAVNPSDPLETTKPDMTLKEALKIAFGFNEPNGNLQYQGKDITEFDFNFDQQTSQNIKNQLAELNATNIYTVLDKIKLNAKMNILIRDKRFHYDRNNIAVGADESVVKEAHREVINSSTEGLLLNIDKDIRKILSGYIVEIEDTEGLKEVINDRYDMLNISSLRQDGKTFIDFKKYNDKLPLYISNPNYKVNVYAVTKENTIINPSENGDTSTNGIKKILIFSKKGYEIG

**Q.** For `Cc1ccc(CNC[C@H]2O[C@@H]3O[C@H]4[C@H](O)[C@@H](O)[C@@H](O[C@H]5[C@H](O)[C@@H](O)[C@@H](O[C@H]6[C@H](O)[C@@H](O)[C@@H](O[C@H]7[C@H](O)[C@@H](O)[C@@H](O[C@H]8[C@H](O)[C@@H](O)[C@@H](O[C@H]9[C@H](O)[C@@H](O)[C@@H](O[C@H]2[C@H](O)[C@H]3O)O[C@@H]9CNCc2ccc(C)cc2)O[C@@H]8CNCc2ccc(C)cc2)O[C@@H]7CNCc2ccc(C)cc2)O[C@@H]6CNCc2ccc(C)cc2)O[C@@H]5CNCc2ccc(C)cc2)O[C@@H]4CNCc2ccc(C)cc2)cc1` [Compound 8], which IC50 (LeTx) is on record?
**A.** 0.5 ± 0.2 µM

**Q.** With `O[C@@H]1[C@@H](O)[C@H]2O[C@H]3[C@H](O)[C@@H](O)[C@@H](O[C@H]4[C@H](O)[C@@H](O)[C@@H](O[C@H]5[C@H](O)[C@@H](O)[C@@H](O[C@H]6[C@H](O)[C@@H](O)[C@@H](O[C@H]7[C@H](O)[C@@H](O)[C@@H](O[C@H]8[C@H](O)[C@@H](O)[C@@H](O[C@@H]1[C@@H](CNCc1ccc(Cl)cc1)O2)O[C@@H]8CNCc1ccc(Cl)cc1)O[C@@H]7CNCc1ccc(Cl)cc1)O[C@@H]6CNCc1ccc(Cl)cc1)O[C@@H]5CNCc1ccc(Cl)cc1)O[C@@H]4CNCc1ccc(Cl)cc1)O[C@@H]3CNCc1ccc(Cl)cc1` [Compound 9] as the compound, how does the IC50 (LeTx) read?
**A.** 5.4 ± 0.8 µM

**Q.** With `O[C@@H]1[C@@H](O)[C@H]2O[C@H]3[C@H](O)[C@@H](O)[C@@H](O[C@H]4[C@H](O)[C@@H](O)[C@@H](O[C@H]5[C@H](O)[C@@H](O)[C@@H](O[C@H]6[C@H](O)[C@@H](O)[C@@H](O[C@H]7[C@H](O)[C@@H](O)[C@@H](O[C@H]8[C@H](O)[C@@H](O)[C@@H](O[C@@H]1[C@@H](CNCc1ccc(Br)cc1)O2)O[C@@H]8CNCc1ccc(Br)cc1)O[C@@H]7CNCc1ccc(Br)cc1)O[C@@H]6CNCc1ccc(Br)cc1)O[C@@H]5CNCc1ccc(Br)cc1)O[C@@H]4CNCc1ccc(Br)cc1)O[C@@H]3CNCc1ccc(Br)cc1` [Compound 10] as the compound, how does the “Inhibition of α-HL hemolytic activity (in words)” value (α-HL [1]) read?
**A.** did not display any activity

**Q.** What about the IC50 (α-HL [1]; erythrocytes) of the same compound?
**A.** > 100 µM

**Q.** Which IC50 (α-HL [2]) does the source give for `CC(C)(C)OC(=O)NC(CCCN)C(=O)NCC1OC2OC3C(CNC(=O)C(CCCN)NC(=O)OC(C)(C)C)OC(OC4C(CNC(=O)C(CCCN)NC(=O)OC(C)(C)C)OC(OC5C(CNC(=O)C(CCCN)NC(=O)OC(C)(C)C)OC(OC6C(CNC(=O)C(CCCN)NC(=O)OC(C)(C)C)OC(OC7C(CNC(=O)C(CCCN)NC(=O)OC(C)(C)C)OC(OC8C(CNC(=O)C(CCCN)NC(=O)OC(C)(C)C)OC(OC1C(O)C2O)C(O)C8O)C(O)C7O)C(O)C6O)C(O)C5O)C(O)C4O)C(O)C3O` (stereo not shown) [Compound 11] here?
**A.** ~0.05 µM

**Q.** What about the IC50 (α-HL [1]) of the same compound?
**A.** 3.3 µM

**Q.** What about the “Inhibition of α-HL hemolytic activity (in words)” value (α-HL [1]) of the same compound?
**A.** inhibits α-HL

**Q.** Which IC50 (α-HL [1]) does the source give for `CC(C)(C)OC(=O)NC(CCCN)C(=O)NCC1OC2OC3C(CNC(=O)C(CCCN)NC(=O)OC(C)(C)C)OC(OC4C(CNC(=O)C(CCCN)NC(=O)OC(C)(C)C)OC(OC5C(CNC(=O)C(CCCN)NC(=O)OC(C)(C)C)OC(OC6C(CNC(=O)C(CCCN)NC(=O)OC(C)(C)C)OC(OC7C(CNC(=O)C(CCCN)NC(=O)OC(C)(C)C)OC(OC8C(CNC(=O)C(CCCN)NC(=O)OC(C)(C)C)OC(OC9C(CNC(=O)C(CCCN)NC(=O)OC(C)(C)C)OC(OC1C(O)C2O)C(O)C9O)C(O)C8O)C(O)C7O)C(O)C6O)C(O)C5O)C(O)C4O)C(O)C3O` (stereo not shown) [Compound 12] here?
**A.** > 100 µM

**Q.** What does the source list for `Cc1ccc(CNCC2OC3OC4C(CNCc5ccc(C)cc5)OC(OC5C(CNCc6ccc(C)cc6)OC(OC6C(CNCc7ccc(C)cc7)OC(OC7C(CNCc8ccc(C)cc8)OC(OC8C(CNCc9ccc(C)cc9)OC(OC9C(CNCc%10ccc(C)cc%10)OC(OC2C(O)C3O)C(O)C9O)C(O)C8O)C(O)C7O)C(O)C6O)C(O)C5O)C(O)C4O)cc1` (stereo not shown) [Compound 5105]?
**A.** IC50 (ε-toxin): 20 ± 10 µM; Inhibition of ε-toxin cytotoxicity / protection of MDCK cells (in words) (ε-toxin): protection

**Q.** Which IC50 (ε-toxin) does the source give for `OC1C2OC(CNCc3ccc(Cl)cc3)C(OC3OC(CNCc4ccc(Cl)cc4)C(OC4OC(CNCc5ccc(Cl)cc5)C(OC5OC(CNCc6ccc(Cl)cc6)C(OC6OC(CNCc7ccc(Cl)cc7)C(OC7OC(CNCc8ccc(Cl)cc8)C(OC8OC(CNCc9ccc(Cl)cc9)C(O2)C(O)C8O)C(O)C7O)C(O)C6O)C(O)C5O)C(O)C4O)C(O)C3O)C1O` (stereo not shown) [Compound 5130] here?
**A.** 21 ± 9 µM

**Q.** For `OC1C2OC(CNCc3ccc(Br)cc3)C(OC3OC(CNCc4ccc(Br)cc4)C(OC4OC(CNCc5ccc(Br)cc5)C(OC5OC(CNCc6ccc(Br)cc6)C(OC6OC(CNCc7ccc(Br)cc7)C(OC7OC(CNCc8ccc(Br)cc8)C(OC8OC(CNCc9ccc(Br)cc9)C(O2)C(O)C8O)C(O)C7O)C(O)C6O)C(O)C5O)C(O)C4O)C(O)C3O)C1O` (stereo not shown) [Compound 5137], which IC50 (ε-toxin) is on record?
**A.** 20 ± 1 µM

**Q.** With β-cyclodextrin [β-CD] as the compound, how does the Bioavailability [3] read?
**A.** 0.1-4%
